From ChEMBL document CHEMBL2396528, “Synthesis of new conjugated coumarin-benzimidazole hybrids and their anticancer activity” (2013)
The source made the active and inactive calls. The rule behind the calls is not given here.

Key:
Type in all cases: functional
T47D = assay: Cytotoxicity against human T47D cells assessed as growth inhibition at 10 uM after 48 hrs by SRB assay relative to control; conditions: read-out: GI
MCF7 = assay: Cytotoxicity against human MCF7 cells assessed as growth inhibition at 10 uM after 48 hrs by SRB assay relative to control; conditions: MCF7, 48 h, read-out: GI
SN12C = assay: Cytotoxicity against human SN12C cells assessed as growth inhibition at 10 uM after 48 hrs by SRB assay relative to control; conditions: read-out: GI
CAKI-1 = assay: Cytotoxicity against human Caki1 cells assessed as growth inhibition at 10 uM after 48 hrs by SRB assay relative to control; conditions: CAKI-1, 48 h, read-out: GI
ACHN = assay: Cytotoxicity against human ACHN cells assessed as growth inhibition at 10 uM after 48 hrs by SRB assay relative to control; conditions: read-out: GI
SK-OV-3 = assay: Cytotoxicity against human SKOV3 cells assessed as growth inhibition at 10 uM after 48 hrs by SRB assay relative to control; conditions: SK-OV-3, 48 h, read-out: GI
A498 = assay: Cytotoxicity against human A498 cells assessed as growth inhibition at 10 uM after 48 hrs by SRB assay relative to control; conditions: for inhibition of growth at 10 µM: A498, 48 h, read-out: GI
OVCAR-5 = assay: Cytotoxicity against human OVCAR5 cells assessed as growth inhibition at 10 uM after 48 hrs by SRB assay relative to control; conditions: OVCAR-5, 48 h, read-out: GI
UACC-62 = assay: Cytotoxicity against human UACC62 cells assessed as growth inhibition at 10 uM after 48 hrs by SRB assay relative to control; conditions: UACC-62, 48 h, read-out: GI
SK-MEL-28 = assay: Cytotoxicity against human SK-MEL-28 cells assessed as growth inhibition at 10 uM after 48 hrs by SRB assay relative to control; conditions: SK-MEL-28, 48 h, read-out: GI
M14 = assay: Cytotoxicity against human M14 cells assessed as growth inhibition at 10 uM after 48 hrs by SRB assay relative to control; conditions: M14, 48 h, read-out: GI
NCI-H322M = assay: Cytotoxicity against human NCI-H322M cells assessed as growth inhibition at 10 uM after 48 hrs by SRB assay relative to control; conditions: read-out: GI
A549 = assay: Cytotoxicity against human A549 cells assessed as growth inhibition at 10 uM after 48 hrs by SRB assay relative to control; conditions: A549, 48 h, read-out: GI
RPMI-8226 = assay: Cytotoxicity against human RPMI8226 cells assessed as growth inhibition at 10 uM after 48 hrs by SRB assay relative to control; conditions: RPMI-8226, 48 h, read-out: GI
MOLT-4 = assay: Cytotoxicity against human MOLT4 cells assessed as growth inhibition at 10 uM after 48 hrs by SRB assay relative to control; conditions: MOLT-4, 48 h, read-out: GI
HL-60(TB) = assay: Cytotoxicity against human HL-60(TB) cells assessed as growth inhibition at 10 uM after 48 hrs by SRB assay relative to control; conditions: HL-60, 48 h, read-out: GI

SMILES | inhibition of growth at 10 µM (T47D) | inhibition of growth at 10 µM (MCF7) | inhibition of growth at 10 µM (SN12C) | inhibition of growth at 10 µM (CAKI-1) | inhibition of growth at 10 µM (ACHN) | inhibition of growth at 10 µM (SK-OV-3) | inhibition of growth at 10 µM (A498) | inhibition of growth at 10 µM (OVCAR-5) | inhibition of growth at 10 µM (UACC-62) | inhibition of growth at 10 µM (SK-MEL-28) | inhibition of growth at 10 µM (M14) | inhibition of growth at 10 µM (NCI-H322M) | inhibition of growth at 10 µM (A549) | inhibition of growth at 10 µM (RPMI-8226) | inhibition of growth at 10 µM (MOLT-4) | inhibition of growth at 10 µM (HL-60(TB)) | growth inhibition (GI) (A498)
O=c1oc2cc(N3CCOCC3)ccc2cc1-c1nc2ccccc2[nH]1 | < 20% | 62.1% | < 20% | < 20% | < 20% | < 20% | < 20% | < 20% | < 20% | < 20% | < 20% | < 20% | < 20% | < 20% | < 20% | < 20% | 
O=c1oc2cc(NCCO)ccc2cc1-c1nc2ccccc2[nH]1 | 70.7% | 62.1% | 22.4% | 22.4% | < 20% | < 20% | < 20% | < 20% | 27.2% | < 20% | 25.4% | 29.7% | < 20% | 46.6% | 38% | 80.5% | 
O=c1oc2cc(Br)ccc2cc1-c1nc2ccccc2[nH]1 | 28.4% | 30% | < 20% | < 20% | < 20% | < 20% | < 20% | < 20% | < 20% | < 20% | < 20% | < 20% | < 20% | < 20% | < 20% | < 20% | 
CN1CCN(c2ccc3cc(-c4nc5ccccc5[nH]4)c(=O)oc3c2)CC1 | 23.1% | 26.3% | < 20% | < 20% | < 20% | < 20% | < 20% | < 20% |  | < 20% | < 20% | < 20% | < 20% | 35.4% | < 20% | 27.1% | 
O=c1oc2cc(NCCN3CCOCC3)ccc2cc1-c1nc2ccccc2[nH]1 | < 20% | < 20% | < 20% | < 20% | < 20% | < 20% | < 20% | < 20% | < 20% | < 20% | < 20% | < 20% | < 20% | < 20% | < 20% | < 20% | 
O=c1[nH]cc(F)c(=O)[nH]1 [FLUOROURACIL] | 56.7% | 11.5% | 54% | 39.4% | 39.3% | 77.5% |  | 44.3% | 39.7% | 19.5% |  | 59.5% | 34.2% | 41.4% | 43.1% | 47.9% | Active
NCCNc1ccc2cc(-c3nc4ccccc4[nH]3)c(=O)oc2c1 | < 20% | < 20% | < 20% | < 20% | < 20% | < 20% | < 20% | < 20% | < 20% | < 20% | < 20% | < 20% | < 20% |  | < 20% | < 20% | 
